Results on two compounds are retold here after paper PMC4076210, “Discovery of Novel AKT Inhibitors with Enhanced Anti-Tumor Effects in Combination with the MEK Inhibitor” (PLoS ONE, 2014).

Where two headings read alike, the source gives them in different places.

What all share (test): Kinase panel
Type in all cases: biochemical

The target in one assay is T1, Flt3(D835Y)(h) (Homo sapiens, UniProt P36888, D835Y).
T1 construct: purchased Millipore KinaseProfiler
T1 sequence (P36888 27-993 D835Y): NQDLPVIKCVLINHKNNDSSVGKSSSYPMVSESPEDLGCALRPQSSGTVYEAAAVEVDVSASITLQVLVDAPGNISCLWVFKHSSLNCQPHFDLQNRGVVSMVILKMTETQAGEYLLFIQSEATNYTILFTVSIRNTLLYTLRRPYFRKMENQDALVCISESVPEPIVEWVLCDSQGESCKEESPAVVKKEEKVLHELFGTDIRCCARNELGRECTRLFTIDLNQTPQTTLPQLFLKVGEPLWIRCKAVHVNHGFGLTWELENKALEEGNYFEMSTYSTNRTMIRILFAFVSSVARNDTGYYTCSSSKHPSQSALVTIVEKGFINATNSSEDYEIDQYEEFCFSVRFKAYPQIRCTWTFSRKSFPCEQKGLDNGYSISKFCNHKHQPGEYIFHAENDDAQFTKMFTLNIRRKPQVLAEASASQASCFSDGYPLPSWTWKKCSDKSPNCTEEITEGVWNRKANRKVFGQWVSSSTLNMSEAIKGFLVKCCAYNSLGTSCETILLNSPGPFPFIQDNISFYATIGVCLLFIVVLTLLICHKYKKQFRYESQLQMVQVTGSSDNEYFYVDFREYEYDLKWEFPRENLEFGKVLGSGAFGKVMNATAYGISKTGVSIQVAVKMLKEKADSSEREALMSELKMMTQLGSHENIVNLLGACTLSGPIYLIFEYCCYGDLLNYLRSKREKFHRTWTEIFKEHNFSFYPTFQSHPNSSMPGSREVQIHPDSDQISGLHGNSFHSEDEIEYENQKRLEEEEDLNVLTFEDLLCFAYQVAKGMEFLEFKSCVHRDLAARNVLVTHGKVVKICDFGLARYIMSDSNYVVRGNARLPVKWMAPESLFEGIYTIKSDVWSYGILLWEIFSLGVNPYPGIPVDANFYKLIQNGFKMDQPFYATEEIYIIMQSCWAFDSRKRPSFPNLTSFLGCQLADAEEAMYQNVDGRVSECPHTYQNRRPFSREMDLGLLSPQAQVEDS

The next assay addresses T2, Hck(h) (Homo sapiens, UniProt P08631).
T2 construct: purchased Millipore KinaseProfiler

In another assay the target is T3, MARK1(h) (Homo sapiens, UniProt Q9P0L2).
T3 construct: purchased Millipore KinaseProfiler

In a further assay the target is T4, PKCβI(h) (Homo sapiens, UniProt P05771).
T4 construct: purchased Millipore KinaseProfiler

A further assay has as its target T5, PKCη(h) (Homo sapiens, UniProt P24723).
T5 construct: purchased Millipore KinaseProfiler

The target in another assay is T6, PTK5(h) (Homo sapiens, UniProt P42685).
T6 construct: purchased Millipore KinaseProfiler

The target of a further assay is T7, RIPK2(h) (Homo sapiens, UniProt O43353).
T7 construct: purchased Millipore KinaseProfiler

A further assay deals with T8, ROCK-I(h) (Homo sapiens, UniProt Q13464).
T8 construct: purchased Millipore KinaseProfiler

The target in a further assay is T9, SAPK2a(h) (Homo sapiens, UniProt Q16539).
T9 construct: purchased Millipore KinaseProfiler

A further assay has as its target T10, SAPK4(h) (Homo sapiens, UniProt O15264).
T10 construct: purchased Millipore KinaseProfiler
T10 sequence (O15264 1-365): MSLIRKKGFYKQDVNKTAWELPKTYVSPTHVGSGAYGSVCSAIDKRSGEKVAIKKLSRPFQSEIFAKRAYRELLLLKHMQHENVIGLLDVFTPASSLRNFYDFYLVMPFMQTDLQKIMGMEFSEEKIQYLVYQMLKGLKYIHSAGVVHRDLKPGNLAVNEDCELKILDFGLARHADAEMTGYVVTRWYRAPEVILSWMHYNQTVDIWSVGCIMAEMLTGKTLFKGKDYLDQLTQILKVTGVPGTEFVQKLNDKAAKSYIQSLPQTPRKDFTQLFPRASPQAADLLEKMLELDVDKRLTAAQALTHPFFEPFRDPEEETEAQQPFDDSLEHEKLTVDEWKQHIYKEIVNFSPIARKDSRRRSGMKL

In another assay the target is T11, TAK1(h) (Homo sapiens, UniProt O43318).
T11 construct: purchased Millipore KinaseProfiler
T11 sequence (O43318 1-303 limits assumed): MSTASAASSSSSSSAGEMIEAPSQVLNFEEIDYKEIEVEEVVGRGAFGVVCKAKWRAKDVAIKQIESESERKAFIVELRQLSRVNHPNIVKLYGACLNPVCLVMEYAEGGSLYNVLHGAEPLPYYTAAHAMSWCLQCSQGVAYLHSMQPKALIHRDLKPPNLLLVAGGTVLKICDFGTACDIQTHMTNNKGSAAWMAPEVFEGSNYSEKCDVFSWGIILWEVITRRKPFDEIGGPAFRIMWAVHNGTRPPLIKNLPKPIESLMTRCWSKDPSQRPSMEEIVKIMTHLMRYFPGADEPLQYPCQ

T9 sequence (Q16539 whole entry): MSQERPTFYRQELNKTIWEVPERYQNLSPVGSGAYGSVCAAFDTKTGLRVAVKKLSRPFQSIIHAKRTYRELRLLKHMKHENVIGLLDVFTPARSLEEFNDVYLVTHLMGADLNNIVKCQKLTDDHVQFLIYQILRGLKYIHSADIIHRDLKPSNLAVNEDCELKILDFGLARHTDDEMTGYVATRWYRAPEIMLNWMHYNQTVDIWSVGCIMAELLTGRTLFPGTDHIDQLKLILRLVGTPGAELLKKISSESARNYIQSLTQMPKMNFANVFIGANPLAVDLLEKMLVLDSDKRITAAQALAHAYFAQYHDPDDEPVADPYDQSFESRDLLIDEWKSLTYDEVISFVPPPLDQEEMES
T7 sequence (O43353 whole entry): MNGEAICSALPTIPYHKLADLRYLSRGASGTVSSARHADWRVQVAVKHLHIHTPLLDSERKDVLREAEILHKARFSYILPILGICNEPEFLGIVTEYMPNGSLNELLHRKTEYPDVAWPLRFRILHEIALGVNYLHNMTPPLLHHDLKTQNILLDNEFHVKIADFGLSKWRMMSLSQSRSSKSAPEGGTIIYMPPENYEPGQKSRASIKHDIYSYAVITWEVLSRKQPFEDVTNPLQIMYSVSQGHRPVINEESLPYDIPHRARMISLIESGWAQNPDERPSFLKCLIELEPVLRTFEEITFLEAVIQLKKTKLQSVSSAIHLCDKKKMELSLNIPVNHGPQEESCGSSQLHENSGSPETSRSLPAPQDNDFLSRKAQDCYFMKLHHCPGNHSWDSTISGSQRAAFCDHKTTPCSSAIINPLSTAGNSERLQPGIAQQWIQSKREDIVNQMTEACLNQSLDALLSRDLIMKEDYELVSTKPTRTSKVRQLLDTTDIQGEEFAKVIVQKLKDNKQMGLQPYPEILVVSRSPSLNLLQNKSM
T6 sequence (P42685 whole entry): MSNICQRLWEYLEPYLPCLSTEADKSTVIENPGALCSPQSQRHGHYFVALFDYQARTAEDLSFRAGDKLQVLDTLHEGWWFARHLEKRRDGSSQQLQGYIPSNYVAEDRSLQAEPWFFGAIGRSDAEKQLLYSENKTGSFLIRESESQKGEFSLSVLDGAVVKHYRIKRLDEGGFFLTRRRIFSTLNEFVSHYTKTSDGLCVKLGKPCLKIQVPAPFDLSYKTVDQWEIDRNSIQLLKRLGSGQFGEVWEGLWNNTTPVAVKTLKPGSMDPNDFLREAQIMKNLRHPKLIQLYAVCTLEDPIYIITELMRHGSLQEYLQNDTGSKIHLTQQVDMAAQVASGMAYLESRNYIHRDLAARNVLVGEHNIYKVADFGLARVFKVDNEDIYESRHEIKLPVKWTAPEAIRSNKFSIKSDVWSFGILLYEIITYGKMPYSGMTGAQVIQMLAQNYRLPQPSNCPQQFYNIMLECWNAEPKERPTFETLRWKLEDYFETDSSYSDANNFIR
T3 sequence (Q9P0L2 whole entry): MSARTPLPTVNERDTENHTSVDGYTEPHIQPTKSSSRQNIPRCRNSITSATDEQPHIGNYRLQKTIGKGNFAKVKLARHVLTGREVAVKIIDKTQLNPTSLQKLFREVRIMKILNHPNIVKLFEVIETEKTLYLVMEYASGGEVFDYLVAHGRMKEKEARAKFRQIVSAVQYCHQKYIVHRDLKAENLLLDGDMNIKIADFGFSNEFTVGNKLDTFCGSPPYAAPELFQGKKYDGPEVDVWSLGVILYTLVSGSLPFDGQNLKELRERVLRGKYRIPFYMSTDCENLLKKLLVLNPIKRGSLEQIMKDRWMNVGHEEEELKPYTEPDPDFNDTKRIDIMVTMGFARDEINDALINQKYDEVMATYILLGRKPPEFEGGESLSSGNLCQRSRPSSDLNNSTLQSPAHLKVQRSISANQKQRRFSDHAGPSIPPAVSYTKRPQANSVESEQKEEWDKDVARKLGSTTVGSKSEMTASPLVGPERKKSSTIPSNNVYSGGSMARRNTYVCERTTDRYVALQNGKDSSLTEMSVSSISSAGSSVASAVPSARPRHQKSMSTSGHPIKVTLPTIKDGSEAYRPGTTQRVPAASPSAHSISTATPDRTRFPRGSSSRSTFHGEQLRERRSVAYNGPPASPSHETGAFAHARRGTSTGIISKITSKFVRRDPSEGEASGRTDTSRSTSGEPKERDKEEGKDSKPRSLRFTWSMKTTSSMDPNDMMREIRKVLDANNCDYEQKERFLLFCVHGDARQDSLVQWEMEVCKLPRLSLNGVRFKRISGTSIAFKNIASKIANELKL
T5 sequence (P24723 whole entry): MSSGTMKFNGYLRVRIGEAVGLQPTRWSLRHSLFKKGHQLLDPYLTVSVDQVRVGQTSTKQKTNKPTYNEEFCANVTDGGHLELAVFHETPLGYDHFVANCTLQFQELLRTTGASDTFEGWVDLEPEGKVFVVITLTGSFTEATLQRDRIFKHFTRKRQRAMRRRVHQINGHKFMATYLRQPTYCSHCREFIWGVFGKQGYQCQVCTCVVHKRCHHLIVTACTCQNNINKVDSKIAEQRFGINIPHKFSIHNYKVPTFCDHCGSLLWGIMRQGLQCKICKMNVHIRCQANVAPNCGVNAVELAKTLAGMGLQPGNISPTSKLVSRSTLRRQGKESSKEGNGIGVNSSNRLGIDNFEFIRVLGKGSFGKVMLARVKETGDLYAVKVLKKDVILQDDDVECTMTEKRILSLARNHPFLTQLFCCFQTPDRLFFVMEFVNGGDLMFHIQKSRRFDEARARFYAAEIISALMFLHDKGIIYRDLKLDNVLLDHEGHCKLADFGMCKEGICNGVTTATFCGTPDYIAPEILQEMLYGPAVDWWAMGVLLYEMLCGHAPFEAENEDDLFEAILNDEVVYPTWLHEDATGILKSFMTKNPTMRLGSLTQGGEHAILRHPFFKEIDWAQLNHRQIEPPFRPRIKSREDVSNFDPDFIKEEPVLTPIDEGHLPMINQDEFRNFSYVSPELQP
T8 sequence (Q13464 whole entry): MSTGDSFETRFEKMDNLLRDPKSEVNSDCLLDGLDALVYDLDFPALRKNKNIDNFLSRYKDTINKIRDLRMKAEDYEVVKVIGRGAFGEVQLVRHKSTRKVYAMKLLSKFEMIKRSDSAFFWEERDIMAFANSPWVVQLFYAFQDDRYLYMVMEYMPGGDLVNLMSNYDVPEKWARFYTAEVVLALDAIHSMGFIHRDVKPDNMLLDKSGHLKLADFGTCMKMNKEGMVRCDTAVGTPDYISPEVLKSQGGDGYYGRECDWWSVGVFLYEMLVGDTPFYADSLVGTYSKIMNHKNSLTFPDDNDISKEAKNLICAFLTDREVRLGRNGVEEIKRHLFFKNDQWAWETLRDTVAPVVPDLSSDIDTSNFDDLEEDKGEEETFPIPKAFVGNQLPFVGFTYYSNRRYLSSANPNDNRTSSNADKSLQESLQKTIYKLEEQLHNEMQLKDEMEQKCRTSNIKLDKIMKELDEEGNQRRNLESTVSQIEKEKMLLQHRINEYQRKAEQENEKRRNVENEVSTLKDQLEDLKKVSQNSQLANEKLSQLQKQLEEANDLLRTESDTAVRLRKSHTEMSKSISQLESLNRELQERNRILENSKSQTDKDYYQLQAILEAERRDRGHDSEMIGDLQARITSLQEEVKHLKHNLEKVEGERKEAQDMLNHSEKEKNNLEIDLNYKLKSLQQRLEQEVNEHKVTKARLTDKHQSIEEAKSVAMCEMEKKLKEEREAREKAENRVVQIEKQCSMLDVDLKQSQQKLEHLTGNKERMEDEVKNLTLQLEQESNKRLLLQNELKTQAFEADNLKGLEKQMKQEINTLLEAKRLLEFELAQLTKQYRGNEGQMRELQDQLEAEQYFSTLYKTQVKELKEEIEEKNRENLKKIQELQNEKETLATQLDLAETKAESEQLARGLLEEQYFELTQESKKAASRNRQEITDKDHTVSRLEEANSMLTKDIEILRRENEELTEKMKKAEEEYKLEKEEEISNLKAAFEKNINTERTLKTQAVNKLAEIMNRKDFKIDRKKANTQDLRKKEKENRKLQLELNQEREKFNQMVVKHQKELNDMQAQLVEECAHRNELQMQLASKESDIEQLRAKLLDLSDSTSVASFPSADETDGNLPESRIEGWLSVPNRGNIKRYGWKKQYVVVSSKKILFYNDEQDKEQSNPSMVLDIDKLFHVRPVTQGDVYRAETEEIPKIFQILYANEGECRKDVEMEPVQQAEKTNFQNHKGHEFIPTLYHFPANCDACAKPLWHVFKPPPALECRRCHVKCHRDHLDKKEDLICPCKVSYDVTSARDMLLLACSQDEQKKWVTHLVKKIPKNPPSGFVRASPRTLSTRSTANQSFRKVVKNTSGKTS
T2 sequence (P08631 whole entry): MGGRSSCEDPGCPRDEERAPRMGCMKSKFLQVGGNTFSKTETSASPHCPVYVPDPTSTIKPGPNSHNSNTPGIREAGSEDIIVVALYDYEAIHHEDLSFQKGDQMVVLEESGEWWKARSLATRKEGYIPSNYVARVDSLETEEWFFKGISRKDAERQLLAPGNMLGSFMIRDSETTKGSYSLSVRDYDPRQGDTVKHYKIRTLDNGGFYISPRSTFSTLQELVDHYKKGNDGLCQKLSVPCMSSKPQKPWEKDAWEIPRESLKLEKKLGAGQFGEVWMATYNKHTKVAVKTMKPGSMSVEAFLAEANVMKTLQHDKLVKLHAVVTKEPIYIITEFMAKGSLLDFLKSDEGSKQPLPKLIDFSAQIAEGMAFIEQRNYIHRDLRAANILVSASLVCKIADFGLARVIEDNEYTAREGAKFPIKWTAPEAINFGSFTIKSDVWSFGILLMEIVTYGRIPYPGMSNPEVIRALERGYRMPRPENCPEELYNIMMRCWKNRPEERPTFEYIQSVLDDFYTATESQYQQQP

The term inhibition denotes the drop in the measured response relative to a control, in per cent. With `Cn1ncc(Cl)c1-c1cc(C(=O)N[C@H](CN)Cc2ccc(F)c(F)c2)oc1Cl` [GSK2141795], the inhibition at 0.5 µM on Flt3(D835Y)(h) (0.5 µM, read-out: % Inhibition) was 6%; at Hck(h) (0.5 µM, read-out: % Inhibition), -5%; on MARK1(h) (0.5 µM, read-out: % Inhibition) it was -11%; at PKCβI(h) (0.5 µM, read-out: % Inhibition), 74%; on PKCη(h) (0.5 µM, read-out: % Inhibition), 86%; at PTK5(h) (0.5 µM, read-out: % Inhibition), 11%. Also, the inhibition at 0.5 µM at RIPK2(h) (0.5 µM, read-out: % Inhibition) is 3%; at ROCK-I(h) (0.5 µM, read-out: % Inhibition), 18%; on SAPK2a(h) (0.5 µM, read-out: % Inhibition) it was -7%; at SAPK4(h) (0.5 µM, read-out: % Inhibition), -9%; on TAK1(h) (0.5 µM, read-out: % Inhibition), -10%. For the same compound, the inhibition at 10 µM at Flt3(D835Y)(h) (10 µM, read-out: % Inhibition) was found to be 81%; on Hck(h) (10 µM, read-out: % Inhibition), 27%; on MARK1(h) (10 µM, read-out: % Inhibition), 53%; on PKCβI(h) (10 µM, read-out: % Inhibition) it was 97%; on PKCη(h) (10 µM, read-out: % Inhibition) it was 99%; on PTK5(h) (10 µM, read-out: % Inhibition), 70%. Also, the inhibition at 10 µM was 15% at RIPK2(h) (10 µM, read-out: % Inhibition); 71% at ROCK-I(h) (10 µM, read-out: % Inhibition); -3% on SAPK2a(h) (10 µM, read-out: % Inhibition); 54% on SAPK4(h) (10 µM, read-out: % Inhibition); -10% on TAK1(h) (10 µM, read-out: % Inhibition).

For the compound `Cn1ncc(Cl)c1-c1cc(C(=O)N[C@H](CN)Cc2cccc(F)c2)sc1Cl` [GSK2110183], the inhibition at 0.5 µM against Flt3(D835Y)(h) was 12%; against Hck(h), -21%; on MARK1(h), 26%; at PKCβI(h), 61%; on PKCη(h), 78%; on PTK5(h) it was 4%. Further, the inhibition at 0.5 µM is -8% on RIPK2(h); 12% at ROCK-I(h); -13% against SAPK2a(h); 3% at SAPK4(h); -3% on TAK1(h). The inhibition at 10 µM at Flt3(D835Y)(h) is 71%; on Hck(h), -8%; on MARK1(h), 88%; on PKCβI(h), 96%; at PKCη(h), 97%; against PTK5(h), 18%. Further, the inhibition at 10 µM against RIPK2(h) is -3%; on ROCK-I(h), 77%; on SAPK2a(h) it was -8%; on SAPK4(h), 64%; against TAK1(h), 1%.
